Assay results: US20050215614A1, “Substituted indoles and their use as hcv inhibitors” (Rigel Pharmaceuticals, Inc., priority 2003, published 2005)

Tested on: HCV replicon
Assay: HCV Replicon Assay (luciferase, 5-2 Luc replicon cells)
Assay type: cell-based
Settings: 5-2 Luc replicon cells (Huh7), 24-48 hours with compound, luciferase counts
Description: Actively dividing 5-2 Luc replicon cells were seeded at the density of 5000-7500 cells/well in the volume of 90 μl/well into 96 well plate(s). The cells were then incubated at 37° C. and 5% CO2 for 24 hours. The 5-2 cells are replicon cells licensed from Ralf Bartenschlager (Germany) and have a self-replicating RNA molecule in the Huh7 cell; the RNA contains HCV non-structural proteins that make the self-replication possible.
Various concentrations of compounds (in the volume of 10 μl) were added into each well 24 hours after seeding the cells. The cells were incubated for another 24-48 hours before luciferase assay.
After incubating the 5-2 Luc replicon cells with the compounds for 24-48 hours, media were aspirated from each well and Bright-Glo (Promega) luciferase assay reagents were added to each well according to the manufacturer′s manual. Briefly, the Bright-Glo reagent was diluted with equal volume of PBS and an aliquote (100 μl) was added to each well. After incubating the plate at room temperature for 5 minutes, luciferase counts were taken using a luminometer.

Structure (SMILES)	Activity (concentration of inhibitory activity)
CCCC(=O)Nc1ccc2[nH]c(C(C)(C)C)cc2c1 [Compound 224]	b (“b” indicates activity is at a concentration greater than 10 micromolar)
CC(C)(C)c1cc2cc(NC(=O)c3ccc(Cl)cc3Cl)ccc2[nH]1 [Compound 5f, 2-t-Butyl-5-(2′,4′-dichlorophenylcarbonyl)aminoindole]	a (“a” indicates inhibitory activity at a concentration of less than 10 micromolar)
Cc1cc2cc(NC(=O)C3CCCC3)ccc2n1C(=O)c1c(F)cccc1Cl [Compound 16e-1, 1-(2′-Chloro-6′-fluorobenzoyl)-5-cyclopentanecarbonylamino-2-methylindole]	a (“a” indicates inhibitory activity at a concentration of less than 10 micromolar)
Cc1c(C)n(C(=O)c2c(Cl)cccc2Cl)c2ccc(NC(=O)C3CC3)cc12 [Compound 13d, 5-(Cyclopropanecarbonyl)amino-1-(2′,6′-dichlorobenzoyl)-2,3-dimethylindole]	a (“a” indicates inhibitory activity at a concentration of less than 10 micromolar)
Cc1cccc(C)c1C(=O)n1c(C)cc2cc(NC(=O)C3CCC3)ccc21 [Compound 16f-3, 5-Cyclobutanecarbonylamino-1-(2′,6′-dimethylbenzoyl)-2-methylindole]	a (“a” indicates inhibitory activity at a concentration of less than 10 micromolar)
Cc1cc2cc(NC(=O)C3CC3)ccc2n1C(=O)c1c(F)cccc1Cl [Compound 16e-4, 1-(2′-Chloro-6′-fluorobenzoyl)-5-cyclopropanecarbonylamino-2-methylindole]	a (“a” indicates inhibitory activity at a concentration of less than 10 micromolar)
CC(C)(C)c1cc2cc(NC(=O)CCc3c[nH]c4ccccc34)ccc2[nH]1 [Compound 215]	b (“b” indicates activity is at a concentration greater than 10 micromolar)
Cc1cc2cc(NC(=O)C3CCC(=O)C3)ccc2n1C(=O)c1cc(Cl)nc(Cl)c1 (stereo not drawn) [Compound 16g-3, 1-(2′,6′-Dichloro-4-pyridylcarbonyl)-5-(3-oxo-1-cyclopentanecarbonyl)amino-2-methylindole]	a (“a” indicates inhibitory activity at a concentration of less than 10 micromolar)
Cc1cc2cc(NC(=O)C3CC3)ccc2n1C(=O)c1c(F)cccc1F [Compound 16d-3, 5-Cyclopropanecarbonylamino-1-(2′,6′-difluorobenzoyl)-2-methylindole]	b (“b” indicates activity is at a concentration greater than 10 micromolar)
Cc1cc2cc(NC(=O)C3CCCCC3)ccc2n1C(=O)c1ccccc1 [Compound 260]	b (“b” indicates activity is at a concentration greater than 10 micromolar)
CCC(CC)C(=O)Nc1ccc2c(c1)cc(C)n2C(=O)c1c(Cl)cccc1Cl [Compound 16a-9, 1-(2′,6′-Dichlorobenzoyl)-5-(2-ethylbutanoyl)amino-2-methylindole]	a (“a” indicates inhibitory activity at a concentration of less than 10 micromolar)
CC(C)(C)c1cc2cc(NC(=O)Cc3cccnc3)ccc2[nH]1 [Compound 217]	b (“b” indicates activity is at a concentration greater than 10 micromolar)
Cc1cccc(C)c1C(=O)n1c(C)cc2cc(NC(=O)C3CCCCC3)ccc21 [Compound 16f-2, 5-Cyclohexanecarbonylamino-1-(2′,6′-dimethylbenzoyl)-2-methylindole]	a (“a” indicates inhibitory activity at a concentration of less than 10 micromolar)
CC(C)(C)c1cc2cc(NC(=O)CCN3CCCCC3)ccc2[nH]1 [Compound 213]	b (“b” indicates activity is at a concentration greater than 10 micromolar)
Cc1cc2cc(NC(=O)C3CCC3)ccc2n1C(=O)c1c(F)cccc1F [Compound 16d-2, 5-Cyclobutanecarbonylamino-1-(2′,6′-difluorobenzoyl)-2-methylindole]	b (“b” indicates activity is at a concentration greater than 10 micromolar)
Cc1cc2cc(NC(=O)C3CCCC3)ccc2n1C(=O)c1ccc(Cl)cc1 [Compound 276]	b (“b” indicates activity is at a concentration greater than 10 micromolar)
Cc1cc2cc(NC(=O)C3CCCCC3)ccc2n1C(=O)c1c(Cl)cncc1Cl [Compound 265]	b (“b” indicates activity is at a concentration greater than 10 micromolar)
Cc1cc2cc(NC(=O)C3CC3)ccc2n1C(=O)c1ccccc1 [Compound 259]	b (“b” indicates activity is at a concentration greater than 10 micromolar)

Structure (SMILES)	Activity (concentration of inhibitory activity)
CCC(C)(C)c1cc2cc(NC(=O)c3ccc(C(C)(C)C)cc3)ccc2[nH]1 [Compound 284]	b (“b” indicates activity is at a concentration greater than 10 micromolar)
CC(C)(C)c1cc2cc(NC(=O)C(Cl)Cl)ccc2[nH]1 [Compound 5h, 2-t-Butyl-5-dichloroacetamidoindole]	a (“a” indicates inhibitory activity at a concentration of less than 10 micromolar)
O=C(Nc1ccc2c(ccn2C(=O)c2c(Cl)cccc2Cl)c1)c1cccc(F)c1 [Compound 249]	b (“b” indicates activity is at a concentration greater than 10 micromolar)
Cc1cc2cc(NC(=O)C3CCC(=O)C3)ccc2n1C(=O)c1c(Cl)cccc1Cl (stereo not drawn) [Compound 16a-14]	a (“a” indicates inhibitory activity at a concentration of less than 10 micromolar)
CC(C)(C)c1cc2cc(NC(=O)c3ccco3)ccc2[nH]1 [Compound 230]	b (“b” indicates activity is at a concentration greater than 10 micromolar)
Cc1cc2cc(NC(=O)c3nc4ccccc4s3)ccc2n1C(=O)c1c(Cl)cccc1Cl [Compound 245]	b (“b” indicates activity is at a concentration greater than 10 micromolar)
CC(C)(C)c1cc2cc(NC(=O)Cc3ccc4c(c3)OCO4)ccc2[nH]1 [Compound 216]	b (“b” indicates activity is at a concentration greater than 10 micromolar)
Cc1cc2cc(NC(=O)C3CCC3)ccc2n1C(=O)c1c(F)cccc1Cl [Compound 16e-3, 1-(2′-Chloro-6′-fluorobenzoyl)-5-cyclobutanecarbonylamino-2-methylindole]	a (“a” indicates inhibitory activity at a concentration of less than 10 micromolar)
Cc1cc2cc(NC(=O)C3CCCC3)ccc2n1C(=O)c1c(F)cccc1F [Compound 16d-1, 5-Cyclopentanecarbonylamino-1-(2′,6′-difluorobenzoyl)-2-methylindole]	b (“b” indicates activity is at a concentration greater than 10 micromolar)
CCc1ccc(C(=O)n2c(C)cc3cc(NC(=O)C4CCCC4)ccc32)cc1 [Compound 274]	b (“b” indicates activity is at a concentration greater than 10 micromolar)
Cc1cn(C(=O)c2c(Cl)cccc2Cl)c2ccc(NC(=O)C3CCCC3)cc12 [Compound 9a, 5-(Cyclopentanecarbonyl)amino-1-(2′,6′-dichlorobenzoyl)-3-methylindole]	a (“a” indicates inhibitory activity at a concentration of less than 10 micromolar)
CC(C)(C)c1cc2cc(NC(=O)c3ccc(C(F)(F)F)cc3)ccc2[nH]1 [Compound 278]	a (“a” indicates inhibitory activity at a concentration of less than 10 micromolar)
Cc1cc2cc(NC(=O)C3CCC(=O)C3)ccc2n1C(=O)c1c(F)cccc1C(F)(F)F (stereo not drawn) [Compound 16c-5, 1-(2′-Fluoro-6′-trifluoromethylbenzoyl)-5-(3-oxo-1-cyclopentanecarbonyl)amino-2-methylindole]	a (“a” indicates inhibitory activity at a concentration of less than 10 micromolar)
Cc1cn(C(=O)c2c(Cl)cccc2Cl)c2ccc(NC(=O)C3(c4ccc(Cl)cc4)CCCC3)cc12 [Compound 231]	b (“b” indicates activity is at a concentration greater than 10 micromolar)
Cc1cc2cc(NC(=O)C3CCCC3)ccc2n1C(=O)c1cc(Cl)cc(Cl)c1 [Compound 275]	b (“b” indicates activity is at a concentration greater than 10 micromolar)
Cc1cc2cc(NC(=O)C(C)C)ccc2n1C(=O)c1c(Cl)cccc1Cl [Compound 16a-5, 1-(2′,6′-Dichlorobenzoyl)-5-(2-methylpropanoyl)amino-2-methylindole]	a (“a” indicates inhibitory activity at a concentration of less than 10 micromolar)
Cc1cc2cc(NC(=O)c3cccs3)ccc2n1C(=O)c1c(Cl)cccc1Cl [Compound 242]	b (“b” indicates activity is at a concentration greater than 10 micromolar)
COc1cc(C(=O)Nc2ccc3[nH]c(C(C)(C)C)cc3c2)cc(OC)c1OC [Compound 280]	b (“b” indicates activity is at a concentration greater than 10 micromolar)
